# According to US10316293B2, “Methods for producing single pluripotent stem cells and differentiation thereof” (LifeScan, Inc., priority 2007, dated 2019):
# B1: Wnt3a: Wnt3a (R&D Systems), 10 ng/ml in the definitive endoderm protocol (protein, UniProt P56704 19-352, looked up)
# Protein Wnt-3a: SYPIWWSLAVGPQYSSLGSQPILCASIPGLVPKQLRFCRNYVEIMPSVAEGIKIGIQECQHQFRGRRWNCTTVHDSLAIFGPVLDKATRESAFVHAIASAGVAFAVTRSCAEGTAAICGCSSRHQGSPGKGWKWGGCSEDIEFGGMVSREFADARENRPDARSAMNRHNNEAGRQAIASHMHLKCKCHGLSGSCEVKTCWWSQPDFRAIGDFLKDKYDSASEMVVEKHRESRGWVETLRPRYTYFKVPTERDLVYYEASPNFCEPNPETGSFGTRDRTCNVSSHGIDGCDLLCCGRGHNARAERRREKCRCVFHWCCYVSCQECTRVYDVHTCK
# Legend:
# [1] = system: Human embryonic stem cells H9p33; assay: Cell releasing enzyme panel: passage of hES cell clusters as single cells, recovered cells counted with trypan blue; format: cell-based; conditions: for CELL NUMBER: recovered cells/well after three days on MATRIGEL, reseeded at 200,000 cells/well (collagenase: clusters, 30 minute incubation, 1:5 dilution)
# Experimental: Human embryonic stem cells H9p33 cells grown in clusters in a 6 well dish were incubated with the following enzymes; TrypLE™ Express (stable tryspin-like enzyme (Invitrogen (Carlsbad, Calif.)), TrypLE™ Select (animal origin-free trypsin-like enzyme Invitrogen (Carlsbad, Calif.)), trypsin/EDTA (0.05%), or trypsin (0.25%), for two minutes at 36° C. All enzymes released the cells within two minutes except trypsin. Release with trypsin was achieved after five minutes at 36° C. Cells were reseeded at 200,000 cells/well into a 6 well plate coated with MATRIGEL™ and allowed to expand for three days. Human embryonic stem cells were also passed as clusters with collagenase (30 minute incubation) and reseeded at a 1:5 dilution on MATRIGEL™-coated wells, similar to the counted TrypLE™ Express cells. After three days, the hESC were released by a five minute incubation with TrypLE™ Express. Cells were incubated with 0.01% trypan blue and then counted (Table 1). Cell viability immediately after release was greater than 98% for all enzymes tested. Passage of human embryonic stem cells with collagenase is the standard passaging method. […] TrypLE™ Select and TrypLE™ Express were the best enzymes evaluated and were further tested in a time course experiment, Example 3.
# H1 passage 37 hES cells = assay: Passage of hES cells directly from MEF feeders to MATRIGEL with enzymes; format: cell-based, human
# Experimental: In an effort to move to a feeder free culture of hES cells from a feeder based culture, H1 passage 37 hES cells that had been supported by a MEF feeder layer in hESC media and grown for 5 days on 10 cm^2 wells of 6 well plates were passaged. The cells were passaged with either TrypLE™, Accutase™, or 1 mg/ml of collagenase.
# Before adding enzyme to the cells, the spent media was aspirated, 1 ml PBS (no Ca^2+, or Mg^2+) was added to each well, was aspirated again, and then 1 ml of room temperature enzyme (collagenase, Accutase™, or TrypLE™) was added. Accutase™ or TrypLE™ were used at stock concentration after reaching room temperature. Collagenase was removed from −80° C. freezer, thawed, mixed with 9 ml DMEM/F12, sterile filtered, and allowed to reach room temperature before use.
# The cells were incubated in enzyme at 37° C. for 10 min. […] One ml of 2% Probumin in DMEM-F12 was added to each well and the combined total volume in the well was transferred to a 50 ml sterile conical tube, making sure to lift and suspend as many cells as possible.
# The cells were centrifuged for 5 minutes at 200×g followed by an additional wash with 2% Probumin and centrifugation for 5 minutes at 200×g. Cell were then resuspended in MEF conditioned media and plated at a 1 to 3.5 ratio onto MATRIGEL™ (1:30 dilution in DMEM) coated T25 flasks, and placed in a 37° C., 5% CO2, humidified incubator.
# Cell number was calculated by counting with an Improved Neubauer hemocytomer. […] Given a 1 to 3.5 split ratio, we plated the Accutase treated cells at a seeding density of 2.72 million cells/T25flask or 108,000 cells/cm^2, the TrypLE™ treated cells at a seeding density 2.65 million cells/T25flask or 105,000 cells/cm^2. It is assume that Collagenase treated wells were seeded at a similar density (105,000 to 108,000 cells/cm^2), since there was no appreciable difference in hES density from well to well before enzyme treatment. An additional flask was plated with Collagenase lifted cells for counting purposes at the next passage.
# Cells were maintained for 4 days with daily changes of MEF conditioned media supplemented with […] of bFGF. After 4 days in culture the cultures were confluent, and the single cell treated hES cells formed monolayers of hES cells with occasional pockets of fibroblasts, while the cluster passaged hES cells formed large colony style clusters of hES cells (FIG. 13). These cells were then passaged again.
# As previously described, the cells were incubated in enzyme at 37° C. for 10 min. […] The additional collagenase flask was lifted with Accutase™. The single cells were then with an Improved Neubauer hemocytometer.
# Two ml of 2% Probumin in DMEM-F12 was then added to each flask after enzyme incubation, the total volume (˜4 ml) from the flask was pipetted up and down 5-10 times in order to suspend as many cells as possible. The suspension was then transferred to a 50 ml conical tube and centrifuged for 5 min at 200×g. Cells were then resuspended in MEF conditioned media supplemented with […] of bFGF, and then plated to T25 flasks precoated with 1:30 MATRIGEL™ at a ratio of 1:4.
# Given that the cells were passaged at a 1:4 ratio, the cells were plated at a density of 58,000 cell/cm^2 for Accutase™ passage, 51,000 cell/cm^2 for TrypLE™ passage, and 35,000 cell/cm^2.
# Cells were then grown for an additional 6 days, with daily media change of MEF conditioned media supplemented with 16 ng/ml of bFGF.
# hES H9scp18 = assay: Definitive endoderm differentiation of hES single cells in 96 well plates, IN Cell 1000 cell number and Sox17 staining; format: cell-based, human; conditions: 10 ng/ml Wnt3a, with 100 ng/ml Activin A, 0.5% FBS, two days; 40 wells
# Experimental: hES H9scp18 were seeded into Packard View 96-well plates (Perkin-Elmer) coated with 1:30 growth factor reduced MATRIGEL™ at a density of 14,000 cells/cm^2. The cells were grown for three to four days in MEF conditioned medium and then treated using a DE differentiation protocol. A subset of 40 wells was treated with a standard protocol (10 ng/ml Wnt3a, 100 ng/ml Activin A, and 0.5% FBS in DMEM:F12 for two days). A second subset of 40 wells was treated with the GSK3b inhibitor IX (100 nM; EMD Chemicals, La Jolla, Calif.) instead of Wnt3a. This was followed by treatment for both subsets for three days with 100 ng/ml Activin A and 2% FBS in DMEM:F12. At the end of culture, cells were fixed with 4% paraformaldehyde at room temperature for 20 minutes, washed three times with PBS, and stored in 100 ul PBS overnight. Cells were permeabilized with 0.5% Triton X-100 (Sigma-Aldrich), either at room temperature for 20 minutes or at 4° C. for five minutes, then washed three times with PBS and blocked with 4% chicken serum (Invitrogen-Gibco, Carlesbad, Calif.) in PBS for 30 minutes at room temperature. […]
# [2] = T25 flask on 1:30 MATRIGEL, MEF conditioned media
Molecule,CELL NUMBER [1],density after four days in culture (H1 passage 37 hES cells; [2]),"density after four days in culture, cells total (H1 passage 37 hES cells; [2])",growth and morphology after two passages (H1 passage 37 hES cells; additional 6 days on MATRIGEL after second passage),"lifting of cells from the dish (H1 passage 37 hES cells; first passage from MEF feeders, 10 min at 37° C.)","density of lifted cells (H1 passage 37 hES cells; first passage from MEF feeders, hemocytometer count)","lifting of cells from plastic and MATRIGEL (H1 passage 37 hES cells; second passage, 10-minute treatment at 37° C.)",time to release the cells ([1]; 36° C.),"recovered cell counts / maintaining cell attachment/growth (in words) ([1]; after three days culture, compared with collagenase)",number of cell nuclei per well (hES H9scp18)
Collagenase,3.5 10^5,"138,000 cell/cm^2",3.45 million cells total,form large colonies of dense and homogeneous cells,did not lift cells,not countable by hemocytometer,did not lift cells,–,–,–
TRYPSIN,0.1 10^5,–,–,–,–,–,–,five,significantly less effective at maintaining cell attachment/growth,–
B1,–,–,–,–,–,–,–,–,–,highest number of cell nuclei per well with little variability between wells
